A word on the half-life: it is how long it takes for the measured level to halve.

We go through 3 compounds from patent US20200078453A1, “METHODS OF TREATING A MAMMAL SUFFERING FROM OR SUSCEPTIBLE TO AN IMMUNE REACTION TO DRUG TREATMENT” (Idogen AB, priority 2015, published 2020).

For data set [1], the system named is IDO1 gene expression (mRNA level) in THP-1 cells. Put plainly: Induction of IDO1 in THP-1 cells, RT-qPCR. The format is cell-based, human. Particulars: compound alone, 0.1-10 micromolar. The method, then: THP-1 cells were harvested from appropriate number of T75 flasks. Cells were counted in a Bürker chamber, stained with 0.4% Trypan Blue. The appropriate number of cells for each experiment were transferred to a new tube and centrifuged at 1200 rpm, 5 min at room temperature (RT). The supernatant was discarded and fresh RPMI with 5% FBS were added to get a cell concentration of 2×10^5 cells/mL. The compound was added to the five separate wells in 6-well plates such that five different final concentrations were obtained after adding the cells. A control was added to one well in the 6-well plate to which cells were added. 1×10^6 cells per well were seeded out to achieve a total volume of 5 mL per well. The cells were incubated at 37° C. in 5% CO2 for 96 hours. After 96 hours the assay was stopped and the cells were lysed for the isolation of RNA.
Total RNA was extracted from THP-1 cells using the RNA RNeasy Mini extraction kit (Qiagen), according to the manufacturer's instructions. […]
Following RNA extraction and quantification of gene expression by RT-qPRC, as described above, induction of IDO1 gene expression using Samples 1 to 6 was investigated. […]
Following RNA extraction and quantification of gene expression by RT-qPRC, as described above, induction of IDO1 gene expression using Samples 7 to 12 was investigated.
(In qPCR the cycle at which signal appears reflects the starting amount.)

The conditions of data set [2]: cited from earlier work.
For data set [3] the following is noted: cited from earlier work. This is another data set of the same source.

Like-named read-outs stand apart in the source and are kept apart here.

As to `Nc1ncn([C@@H]2O[C@H](CO)[C@@H](O)[C@H]2O)c(=O)n1` [5-azacytidine], the “increase of IDO1 gene expression (maximum)” value in data set [1] is “up to 23 fold”.

As to `O=c1ncccn1[C@@H]1O[C@H](CO)[C@@H](O)[C@H]1O` [Zebularine], the half-life result is “approximately 44 h” in data set [2] (37° C. in PBS at pH 1.0) and around 21.2 days in data set [2] (37° C. in PBS at pH 7.0). Besides, the toxicity entry in data set [3] (at high concentrations) is on record as “toxic”. Also, the cytotoxicity entry in data set [3] (in vitro and in vivo, at used concentrations) is “minimally cytotoxic”.

For `Nc1ncn([C@H]2C[C@H](O)[C@@H](CO)O2)c(=O)n1` [decitabine, 5-aza-2′-deoxycytidine], the “increase of IDO1 gene expression (maximum)” value in data set [1] is given as “up to 101 fold”.
